Columns and labels:
[1] = modified Ross-Miles Foam Test; assay type: physicochemical; conditions: 1% active in water, 66-67 °C, shaken ten times; time point not stated; higher is better
Excerpt: Sodium Lauryl sulfate is one of the most commonly used anionic surfactants. While it is a good detergent and produces large volume of foam, it is irritating and has no conditioning properties. In fact, it strips the oil from hair leaving the hair dry and fly away. Compounds of the present invention compare favorably with sodium lauryl sulfate in foam levels, and detergency, but also are non-irritating, conditioning and provide self-preserving properties. This coupled with the fact that they are derived from natural sugars, makes them the perfect single surfactant for personal care formulation. The following compounds were evaluated at 1% active in water. The higher the foam, the better.
The foaming properties of the compositions were also evaluated by a modified “Ross-Miles Foam Test”. This compares the foaming tendencies of different products or surfactants in water at various temperatures.
The test is carried out as follows: • 1. 500 ml. of water (the water should be representative of the system^1) was added to a 1000 ml. graduated cylinder having a cylinder diameter 65 mm. Then 18.0-ppm ortho phosphate is added to the cylinder as a buffer. The test is carried out at a temperature of 66° C. to 67° C. • 2. The concentration tested was 1% by weight solids. • 3. Then cylinder with contents is shaken vertically at the specified temperature ten times (the times shaken equals the number of cycles). After the tenth time, the initial foam height (t=0) is recorded in ml. Then the foam level at t=5 minutes and t=30 minutes is recorded. Results

[2] = system: Pseudomonas aeruginosa; Staphylococcus aureus; Candida albicans; Aspergillus niger; experiment: antimicrobial zone inhibition technique, activity summary over four test organisms; assay type: cell-based; conditions: 0.50% by weight in water; for Comments (antimicrobial activity in words): B = bacteria, Y = yeast, M = mold; for Score (sum of the four organism scores): lower score = greater activity
Description: (§1) A study was conducted to determine the antimicrobial capability of four (4) SugaQuat (alkyl polyglucoside) variations utilizing the zone inhibition technique. The test materials were evaluated for gross antimicrobial activity against a series of four (4) test organisms: Pseudomonas aeruginosa (Gram-negative bacteria); Staphylococcus aureus (Gram-positive bacteria); Candida albicans (yeast) and Aspergillus niger (mold) utilizing the zone inhibition technique.
(§2) • Sodium Lauryl Sulfate (0.50% by weight concentration in water). • Sodium Laureth 2 Sulfate (0.50% by weight concentration in water). • Example 3 (0.50% by weight concentration in water). • Example 4 (0.50% by weight concentration in water). • Example 8 (0.50% by weight concentration in water). • Example 9 (0.50% by weight concentration in water). • Example 7 (0.50% by weight concentration in water). Activity Summary • SCORING: • 1=Excellent; 2=Very Good; 3=Good; 4=OK (moderate); 6=Poor; 8=No Activity Control Compounds

[3] = salon half head study of detergency (cleanliness of washed hair); assay type: in vivo; conditions: 5% solution; rated by the test person, scale 1 (poor) to 5 excellent
Description: Detergency was also studies. The cleanliness of hair washed in the salon in half head studies was conducted. A 5% solution of the composition of the present invention was evaluated. The person having the test run was asked to evaluate the following samples for cleanliness of the hair. The scale was 1 (poor) to 5 excellent.

[4] = salon half head study of conditioning (combability and softness) and wet comb of washed hair; assay type: in vivo; conditions: 5% solution; rated by the test person, scale 1 (poor) to 5 excellent
Description: Conditioning was studied. The wet comb properties of hair washed in the salon in half head studies was conducted. Evaluation of the dry hair was also evaluated. A 5% solution of the composition of the present invention was evaluated. The person having the test run was asked to evaluate the following samples for combability and softness of the hair. The scale was 1 (poor) to 5 excellent.

Candida albicans (yeast) = experiment: antimicrobial zone inhibition technique; assay type: cell-based; set-up: key: 1=Excellent; 2=Very Good; 3=Good; 4=OK (moderate); 6=Poor; 8=No Activity; conditions: 0.50% by weight in water; lower score = greater activity
Description: as §1, §2

[5] = system: Staphylococcus aureus (Gram-positive bacteria); experiment: antimicrobial zone inhibition technique; assay type: cell-based; set-up: key: 1=Excellent; 2=Very Good; 3=Good; 4=OK (moderate); 6=Poor; 8=No Activity; conditions: 0.50% by weight in water; lower score = greater activity
Description: as §1, §2

[6] = system: Pseudomonas aeruginosa (Gram-negative bacteria); experiment: antimicrobial zone inhibition technique; assay type: cell-based; set-up: key: 1=Excellent; 2=Very Good; 3=Good; 4=OK (moderate); 6=Poor; 8=No Activity; conditions: 0.50% by weight in water; lower score = greater activity
Description: as §1, §2

Aspergillus niger (mold) = experiment: antimicrobial zone inhibition technique; assay type: cell-based; set-up: key: 1=Excellent; 2=Very Good; 3=Good; 4=OK (moderate); 6=Poor; 8=No Activity; conditions: 0.50% by weight in water; lower score = greater activity
Description: as §1, §2

Row | Compound | Foam Level [1] | Comments (antimicrobial activity in words) [2] | Score (sum of the four organism scores) [2] | Detergency Result (cleanliness of the hair) [3] | Conditioning [4] | Wet Comb [4] | Ca activity score (Candida albicans (yeast)) | Sa activity score [5] | Psa activity score [6] | An activity score (Aspergillus niger (mold))
1 | Sodium laureth 3-sulfate | 720 mL |  |  |  |  |  |  |  |  | 
2 | Sodium laureth 1-sulfate | 750 mL |  |  |  |  |  |  |  |  | 
3 | Sodium Laureth 2 Sulfate | 770 mL | No activity | 32 | 4 | 1 | 1 | 8 | 8 | 8 | 8
4 | CCCCCCCCCCCCOS(=O)(=O)[O-].[Na+] [Sodium Lauryl Sulfate] | 900 mL | No activity | 32 | 5 | 1 | 1 | 8 | 8 | 8 | 8

— patent US6881710B1, “Personal care products based upon surfactants based upon alkyl polyglucoside quaternary compounds” (Colonial Chemical Inc., priority 2004, dated 2005)
